Test results as given in patent publication US20070026080A1, “Manufacturing process for tigecycline” (Wyeth, priority 2005, published 2007).
Values joined by “and” are separate entries in the source; they are usually repeats but may differ in a detail not shown here. Equal entries are not always repeated. Marks after values point to notes of the source that are not given here.

Assay: Strength and degradation profile of tigecycline 20 mg/mL bulk solutions by reversed phase HPLC (effect of temperature, time, pH, dissolved oxygen; Runs A to O)
Type: physicochemical
Settings: 20 mg/mL
Experimental: The contents of the sample vials are dissolved in diluent. The sample solution is diluted, if necessary, and chromatographed on a reversed phase column using gradient elution. Impurities are determined by comparing the impurity peak areas in the sample preparation chromatogram to the average area of tigecycline peaks in the standard preparation chromatograms obtained concomitantly.
Chromatographic Column—Length about 15 cm, inside diameter about 4.6 mm, packed with Inertsil ODS2, 5 μm size particles or equivalent.
Detector—Ultraviolet spectrophotometric detector capable of operating at 248 nm with a sensitivity of about 0.5 absorbance units full scale.
The results of additional studies to investigate the effect of processing parameters such as temperature, time, and dissolved oxygen content on the purity profile of tigecycline solutions using the following materials, methods and procedures are presented in Tables A to O.
The experiments were run in plastic glove bags under normal laboratory light conditions. Plastic glove boxes will be used to control the headspace of the beakers. The batch size was 200 mL. • 1. Prepare the glove bag with a mixture of nitrogen and air to achieve an oxygen level in the solution as per the design. • 2. Place the jacketed beaker on the magnetic stirrer. Connect it to the cooler. Set the cooler to the desired set point. • 3. Add 200 mL of SWFI in to the beaker. Allow equilibrating. Measure the temperature and oxygen content. When it reaches the desired condition, add accurately weighed API and mix until dissolved. If necessary use spatula to aid dissolution. For pH adjustments, use 4 mL of either 0.1N NaOH or 0.1N HCl and 196 mL of WFI for manufacture. • 4. After complete dissolution, Transfer about 5.5 mL of Solution in vials and stopper them. These vials will be stoppered at the appropriate headspace conditions. Place the vials in appropriate temperature conditions. • 5. Sample the vials at 1, 4, 8, 10, 12 and 24 hours. Send the samples for analysis. Freeze the 10, 12 and 24 samples at −20° C. for analysis the following day. • 6. Measure pH and record color of the solution at each time point. Results
The 1-hour samples were taken directly from the beakers. Samples for later time points were collected in stoppered vials processed in the atmosphere of the bag in order to simulate the headspace conditions then placed in water baths or refrigerator to maintain there respective temperature conditions. This was done to maintain safety in the lab. Disposable plastic glove bags require constant flow of a mixture of nitrogen and air to maintain headspace oxygen level that will result in the desired dissolved oxygen (DO) content in the sample. The pH of samples was measured at each sample points.
Strength and degradation profile was analyzed by HPLC as described above. […] Degradation was slightly higher at higher temperature condition.

[1] = Run #D, 8° C., pH 7.7, Oxygen 2.0 mg/L, hours 1,4,8,10,12,24 at r6-r11, after 4 hours
[2] = Run #D, 8° C., pH 7.7, Oxygen 2.0 mg/L, hours 1,4,8,10,12,24 at r6-r11, after 8 hours
[3] = Run #D, 8° C., pH 7.7, Oxygen 2.0 mg/L, hours 1,4,8,10,12,24 at r6-r11, after 10 hours
[4] = Run #D, 8° C., pH 7.7, Oxygen 2.0 mg/L, hours 1,4,8,10,12,24 at r6-r11, after 12 hours
[5] = Run #D, 8° C., pH 7.7, Oxygen 2.0 mg/L, hours 1,4,8,10,12,24 at r6-r11, after 24 hours
[6] = Run #D, 8° C., pH 7.7, Oxygen 2.0 mg/L, hours 1,4,8,10,12,24 at r17-r22, after 1 hours
[7] = Run #D, 8° C., pH 7.7, Oxygen 2.0 mg/L, hours 1,4,8,10,12,24 at r17-r22, after 4 hours
[8] = Run #D, 8° C., pH 7.7, Oxygen 2.0 mg/L, hours 1,4,8,10,12,24 at r17-r22, after 8 hours
[9] = Run #D, 8° C., pH 7.7, Oxygen 2.0 mg/L, hours 1,4,8,10,12,24 at r17-r22, after 10 hours
[10] = Run #D, 8° C., pH 7.7, Oxygen 2.0 mg/L, hours 1,4,8,10,12,24 at r17-r22, after 12 hours
[11] = Run #D, 8° C., pH 7.7, Oxygen 2.0 mg/L, hours 1,4,8,10,12,24 at r17-r22, after 24 hours
[12] = Run #E, 5° C., Oxygen = 2.0 mg/mL, hours 1,4,8,12,24 at r6-r10
[13] = Run #E, 5° C., Oxygen = 2.0 mg/mL, hours 1,4,8,12,24 at r16-r20, 1 hours
[14] = Run #E, 5° C., Oxygen = 2.0 mg/mL, hours 1,4,8,12,24 at r16-r20, 4 hours
[15] = Run #E, 5° C., Oxygen = 2.0 mg/mL, hours 1,4,8,12,24 at r16-r20, 8 hours
[16] = Run #E, 5° C., Oxygen = 2.0 mg/mL, hours 1,4,8,12,24 at r16-r20, 12 hours
[17] = Run #E, 5° C., Oxygen = 2.0 mg/mL, hours 1,4,8,12,24 at r16-r20, 24 hours
[18] = Run #F, 2° C., hours 1,4,8,12,24 at r5-r9, 1 h after preparation
[19] = Run #F, 2° C., hours 1,4,8,12,24 at r5-r9, 4 h after preparation

SMILES: CN(C)c1cc(NC(=O)CNC(C)(C)C)c(O)c2c1C[C@H]1C[C@H]3[C@H](N(C)C)C(O)=C(C(N)=O)C(=O)[C@@]3(O)C(O)=C1C2=O [Tigecycline]
- Strength (Run #D, 8° C., pH 7.7, Oxygen 2.0 mg/L, hours 1,4,8,10,12,24 at r6-r11, after 1 hours): 19.168 mg/mL
- RRT 0.55 MW = 583 [1]: 0.16%
- RRT 0.74 Epimer [1]: 0.18%
- Strength [1]: 18.918 mg/mL
- RRT 0.55 MW = 583 [2]: 0.23%
- Strength [2]: 18.915 mg/mL
- RRT 0.55 MW = 583 [3]: 0.27%
- RRT 0.74 Epimer [3]: 0.25%
- Strength [3]: 19.292 mg/mL
- RRT 0.55 MW = 583 [4]: 0.29%
- RRT 0.74 Epimer [4]: 0.24%
- Strength [4]: 18.728 mg/mL
- RRT 0.55 MW = 583 [5]: 0.36%
- RRT 0.74 Epimer [5]: 0.27%
- Strength [5]: 18.050 mg/mL
- RRT 1.45 [6]: 0.07%
- RRT 1.67 MW = 556 [6]: 0.10%
- RRT 1.85 MW = 597 [6]: 0.08%
- Total [6]: 0.65%
- RRT 1.45 [7]: 0.19%
- RRT 1.67 MW = 556 [7]: 0.21%
- Total [7]: 1.09%
- RRT 1.45 [8]: 0.06%
- RRT 1.67 MW = 556 [8]: 0.37%
- RRT 1.85 MW = 597 [8]: 0.14%
- Total [8]: 1.57%
- RRT 1.67 MW = 556 [9]: 0.24%
- Total [9]: 2.27%
- RRT 1.45 [10]: 0.10%
- RRT 1.67 MW = 556 [10]: 0.28%
- RRT 1.85 MW = 597 [10]: 0.09%
- Total [10]: 2.47%
- RRT 1.67 MW = 556 [11]: 0.51%
- RRT 1.85 MW = 597 [11]: 0.10%
- Total [11]: 4.32%
- RRT 0.55 MW = 583 [12]: 0.43% and 0.07% and 0.17% and 0.22% and 0.33%
- Strength [12]: 17.950 mg/mL and 19.261 mg/mL and 19.215 mg/mL and 18.970 mg/mL and 18.475 mg/mL
- RRT 0.58 [13]: 0.08%
- RRT 0.74 Epimer [13]: 0.16%
- RRT 0.76 [13]: 0.05%
- RRT 1.45 [13]: 0.08%
- RRT 1.85 MW = 597 [13]: 0.08%
- Total [13]: 0.67%
- RRT 0.58 [14]: 0.07%
- RRT 0.74 Epimer [14]: 0.17%
- RRT 1.85 MW = 597 [14]: 0.07%
- Total [14]: 0.96%
- RRT 0.74 Epimer [15]: 0.19%
- RRT 0.76 [15]: 0.11%
- RRT 1.45 [15]: 0.10%
- RRT 1.85 MW = 597 [15]: 0.09%
- Total [15]: 1.58%
- RRT 0.74 Epimer [16]: 0.24%
- RRT 0.76 [16]: 0.12%
- RRT 1.85 MW = 597 [16]: 0.11%
- Total [16]: 3.15%
- RRT 0.58 [17]: 0.05%
- RRT 0.74 Epimer [17]: 0.28%
- RRT 0.76 [17]: 0.13%
- RRT 1.45 [17]: 0.07%
- RRT 1.85 MW = 597 [17]: 0.12%
- Total [17]: 4.23%
- RRT 1.67 MW = 556 (Run #E, 5° C., Oxygen = 2.0 mg/mL, hours 1,4,8,12,24 at r16-r20, at 24 h Mino is co-eluting, 1 hours): 0.08%
- RRT 1.67 MW = 556 (Run #E, 5° C., Oxygen = 2.0 mg/mL, hours 1,4,8,12,24 at r16-r20, at 24 h Mino is co-eluting, 4 hours): 0.16%
- RRT 1.67 MW = 556 (Run #E, 5° C., Oxygen = 2.0 mg/mL, hours 1,4,8,12,24 at r16-r20, at 24 h Mino is co-eluting, 8 hours): 0.26%
- RRT 1.67 MW = 556 (Run #E, 5° C., Oxygen = 2.0 mg/mL, hours 1,4,8,12,24 at r16-r20, at 24 h Mino is co-eluting, 12 hours): 0.39%
- RRT 1.67 MW = 556 (Run #E, 5° C., Oxygen = 2.0 mg/mL, hours 1,4,8,12,24 at r16-r20, at 24 h Mino is co-eluting, 24 hours): 0.44^a %
- Strength (Run #F, 2° C., Oxygen = 1.0 mg/mL, hours 1,4,8,12,24 at r5-r9, 1 h after preparation): 18.733 mg/mL
- Strength (Run #F, 2° C., Oxygen = 1.0 mg/mL, hours 1,4,8,12,24 at r5-r9, 4 h after preparation): 18.700 mg/mL
- Strength (Run #F, 2° C., Oxygen = 1.0 mg/mL, hours 1,4,8,12,24 at r5-r9, 8 h after preparation): 18.729 mg/mL
- Strength (Run #F, 2° C., Oxygen = 1.0 mg/mL, hours 1,4,8,12,24 at r5-r9, 12 h after preparation): 18.543 mg/mL
- Strength (Run #F, 2° C., Oxygen = 1.0 mg/mL, hours 1,4,8,12,24 at r5-r9, 24 h after preparation): 18.818 mg/mL
- RRT 0.58 [18]: 0.08%
- RRT 0.74 Epimer [18]: 0.15%
- RRT 1.45 [18]: 0.07%
- RRT 1.64 Mino [18]: 0.10%
- RRT 1.85 MW = 597 [18]: 0.07%
- Total [18]: 0.47%
- RRT 0.58 [19]: 0.07%
- RRT 0.74 Epimer [19]: 0.16%
- RRT 1.64 Mino [19]: 0.09%
- RRT 1.85 MW = 597 [19]: 0.09%
- Total [19]: 0.71%
- RRT 0.74 Epimer (Run #F, 2° C., hours 1,4,8,12,24 at r5-r9, 8 h after preparation): 0.17%
